Common to all, as to type: cell-based
Assay [1] addresses T1, BRAF V600E (Homo sapiens, UniProt P15056, V600E).
T1 construct: endogenous C-terminal HiBiT fusion tag on BRAF V600E allele; endogenous in cells; host or cells: A375 clone 1F10 (CRISPR-Cas9 knock-in of the HiBiT tag; parental A375 from ATCC)
Description: BRAF HiBiT degradation assay, C-terminal HiBiT-tagged BRAF V600E A375 cells (clone 1F10), Nano-Glo HiBiT Lytic assay. The following applies: for Dmax: A-375. Put shortly: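 Degradation is measured as loss of HiBiT signal from BRAF V600E tagged at its native locus in A375 cells. Doses span 1 μM to 0.01 nM in half-log steps, in duplicate. Percent remaining is calculated against DMSO controls after subtracting untagged A375 background, and curve fitting yields DC50 and observed Dmax.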
A general note: HiBiT is a short tag that completes a luciferase, so light tracks the accessible tagged protein.

The target of assay [2] is T2, BRAF G466V (Homo sapiens, UniProt P15056, G466V).
T2 construct: Horizon Discovery (HCT-116 BRAF−/− cells); host or cells: HCT-116 BRAF−/− cells, clone 8, lentiviral transduction
Description: BRAF HiBiT degradation assay, C-terminal HiBiT-tagged BRAF G466V overexpressed in HCT-116 BRAF−/− cells (clone 8), Nano-Glo HiBiT Lytic assay. Put shortly: (§1)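 First, the stable HiBiT-tagged cells were plated and incubated for 24 h. Next, compound was added in duplicate as an 11-point series with a 1 μM top concentration. Lytic detection followed, with DMSO-treated parental cells used for background. Finally, DC50 and Obs. Dmax relative to DMSO were derived from the % protein remaining curves.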

Assay [3] addresses T3, BRAF G469A (Homo sapiens, UniProt P15056, G469A).
T3 construct: Horizon Discovery (HCT-116 BRAF−/− cells); host or cells: HCT-116 BRAF−/− cells, clone 34, lentiviral transduction
As to the kind of experiment: BRAF HiBiT degradation assay, C-terminal HiBiT-tagged BRAF G469A overexpressed in HCT-116 BRAF−/− cells (clone 34), Nano-Glo HiBiT Lytic assay. Put shortly:
as §1

Assay [4] addresses T4, BRAF D594G (Homo sapiens, UniProt P15056, D594G).
T4 construct: Horizon Discovery (HCT-116 BRAF−/− cells); host or cells: HCT-116 BRAF−/− cells, clone 63, lentiviral transduction
As to the kind of experiment: BRAF HiBiT degradation assay, C-terminal HiBiT-tagged BRAF D594G overexpressed in HCT-116 BRAF−/− cells (clone 63), Nano-Glo HiBiT Lytic assay. Put shortly: as §1

Setting [5] is: A375 (BRAF V600E), DC50 at 50%: fitted conc. at Y=50.
[6] abbreviates: A375 (BRAF V600E), percentage protein degraded at maximal compound effect relative to DMSO.
[7] abbreviates: BRAF G466V, DC50 at 50%: fitted conc. at Y=50.
[8] abbreviates: HCT-116, BRAF G466V, percentage protein degraded at maximal compound effect relative to DMSO.
[9] abbreviates: Class 2, BRAF G469A, DC50 at 50%: fitted conc. at Y=50.
Setting [10] is: HCT-116, Class 2, BRAF G469A, percentage protein degraded at maximal compound effect relative to DMSO.
Where [11] appears, read: BRAF D594G, DC50 at 50%: fitted conc. at Y=50.
Where [12] appears, read: HCT-116, BRAF D594G, percentage protein degraded at maximal compound effect relative to DMSO.
Where [13] appears, read: A375 (BRAF V600E, Class 1), DC50 at 50% degradation.
Setting [14] is: A375 (BRAF V600E, Class 1), observed Dmax, % protein degraded relative to DMSO control.
[15] abbreviates: BRAF G466V (Class 3), HCT-116 BRAF−/− cells, DC50 at 50% degradation.
Setting [16] is: BRAF G466V (Class 3), HCT-116 BRAF−/− cells, observed Dmax relative to DMSO control.
[17] abbreviates: BRAF G469A (Class 2), HCT-116 BRAF−/− cells, DC50 at 50% degradation.
The mark [18] stands for this setting: BRAF G469A (Class 2), HCT-116 BRAF−/− cells, observed Dmax relative to DMSO control.
Where [19] appears, read: BRAF D594G (Class 3), HCT-116 BRAF−/− cells, DC50 at 50% degradation.
[20] abbreviates: BRAF D594G (Class 3), HCT-116 BRAF−/− cells, observed Dmax relative to DMSO control.

Bounds are passed on as bounds.

T1 sequence (P15056 whole entry V600E, the tested form may be a part): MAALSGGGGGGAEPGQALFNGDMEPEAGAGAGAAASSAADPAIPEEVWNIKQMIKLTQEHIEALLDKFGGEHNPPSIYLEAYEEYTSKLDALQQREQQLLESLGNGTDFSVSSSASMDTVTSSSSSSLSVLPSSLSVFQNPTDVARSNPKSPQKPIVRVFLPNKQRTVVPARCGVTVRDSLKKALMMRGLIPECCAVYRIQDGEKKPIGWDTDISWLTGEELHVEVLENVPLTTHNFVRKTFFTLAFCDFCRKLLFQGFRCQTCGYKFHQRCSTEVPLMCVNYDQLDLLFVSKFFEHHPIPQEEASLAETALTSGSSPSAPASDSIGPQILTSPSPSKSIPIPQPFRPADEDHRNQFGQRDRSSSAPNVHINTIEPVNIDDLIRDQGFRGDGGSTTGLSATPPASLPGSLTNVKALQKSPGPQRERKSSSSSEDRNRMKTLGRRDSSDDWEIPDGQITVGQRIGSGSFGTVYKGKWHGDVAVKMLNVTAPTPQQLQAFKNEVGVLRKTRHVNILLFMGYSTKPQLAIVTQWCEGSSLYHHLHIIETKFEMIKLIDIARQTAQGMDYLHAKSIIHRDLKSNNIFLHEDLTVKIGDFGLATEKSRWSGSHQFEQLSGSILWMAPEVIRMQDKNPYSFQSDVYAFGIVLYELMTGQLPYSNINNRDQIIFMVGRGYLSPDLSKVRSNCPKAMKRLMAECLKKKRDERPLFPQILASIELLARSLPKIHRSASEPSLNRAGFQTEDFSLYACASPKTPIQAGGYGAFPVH
T2 sequence (P15056 whole entry G466V): as the sequence (P15056 whole entry V600E, the tested form may be a part) above, with G466V, E600V counted along it
T3 sequence (P15056 whole entry G469A): as the sequence (P15056 whole entry V600E, the tested form may be a part) above, with G469A, E600V counted along it
T4 sequence (P15056 whole entry D594G): as the sequence (P15056 whole entry V600E, the tested form may be a part) above, with D594G, E600V counted along it

For orientation: DC50 means the concentration giving 50% degradation. Usually Dmax stands for the largest share of the target that was removed. A high value points to a fuller loss of target. `CCCS(=O)(=O)Nc1cccc(-c2nc(C3CCN(C(=O)C4(C)CCN(C(=O)C5CCN(c6ccc(C7CCC(=O)NC7=O)cn6)CC5)CC4)CC3)sc2-c2ccnc(N)n2)c1F` (racemic) [Compound 197, Rac-N-{3-[5-(2-aminopyrimidin-4-yl)-2-{1-[1-(1-{5-[(3R)-2,6-dioxopiperidin-3-yl]pyridin-2-yl}piperidine-4-carbonyl)-4-methylpiperidine-4-carbonyl]piperidin-4-yl}-1,3-thiazol-4-yl]-2-fluorophenyl}propane-1-sulfonamide]: the DC50 in assay [1] (setting [5]) is under 10 nM; in assay [2] (setting [7]) it was under 10 nM; in assay [3] (setting [9]) it was 10 to 50 nM; in assay [4] (setting [11]), under 10 nM. The Dmax is over 70% in assay [1] (setting [6]), 30 to 70% in assay [2] (setting [8]), 30 to 70% in assay [3] (setting [10]) and 30 to 70% in assay [4] (setting [12]).
For `O=C1CC[C@H](c2ccc(N3CCC(CN4CCN(c5ccc(-n6cc(-c7cc(C(F)F)cc(NS(=O)(=O)N8CCCC8)c7F)c(-c7ccncc7)n6)c(F)c5)CC4)CC3)cc2)C(=O)N1` [Compound 362, N-[5-(difluoromethyl)-3-[1-(4-{4-[(1-{4-[(3R)-2,6-dioxopiperidin-3-yl]phenyl}piperidin-4-yl)methyl]piperazin-1-yl}-2-fluorophenyl)-3-(pyridin-4-yl)-1H-pyrazol-4-yl]-2-fluorophenyl]pyrrolidine-1-sulfonamide], the DC50 was under 10 nM in assay [1] (setting [13]), under 10 nM in assay [2] (setting [15]), 10 to 50 nM in assay [3] (setting [17]) and under 10 nM in assay [4] (setting [19]). Also, the Dmax in assay [1] (setting [14]) is over 70%; in assay [2] (setting [16]), over 70%; in assay [3] (setting [18]), 30 to 70%; in assay [4] (setting [20]), 30 to 70%.
For the compound `CCCS(=O)(=O)Nc1cccc(-c2nc(C3CCC4(CC3)CCN(C(=O)C3CCN(c5ccc(C6CCC(=O)NC6=O)cn5)CC3)CC4)sc2-c2ccnc(N)n2)c1F` (racemic) [Compound 246, Rac-N-{3-[5-(2-aminopyrimidin-4-yl)-2-[3-(1-{5-[(3R)-2,6-dioxopiperidin-3-yl]pyridin-2-yl}piperidine-4-carbonyl)-3-azaspiro[5.5]undecan-9-yl]-1,3-thiazol-4-yl]-2-fluorophenyl}propane-1-sulfonamide], the DC50 is 10 to 50 nM in assay [1] (setting [13]), over 500 nM in assay [2] (setting [15]), over 500 nM in assay [3] (setting [17]) and over 500 nM in assay [4] (setting [19]). The Dmax in assay [1] (setting [14]) is over 70%; in assay [2] (setting [16]), under 30%; in assay [3] (setting [18]), under 30%; in assay [4] (setting [20]), 30 to 70%.
On to `CCCS(=O)(=O)Nc1cccc(-c2nc(C(C)(C)C)sc2-c2ccnc(Nc3ccc(C4CCN(CC5CCN(c6cncc(C7CCC(=O)NC7=O)c6)CC5)CC4)cc3)n2)c1F` (racemic) [Compound 177, Rac-N-[3-(2-tert-butyl-5-{2-[(4-{1-[(1-{5-[(3R)-2,6-dioxopiperidin-3-yl]pyridin-3-yl}piperidin-4-yl)methyl]piperidin-4-yl}phenyl)amino]pyrimidin-4-yl}-1,3-thiazol-4-yl)-2-fluorophenyl]propane-1-sulfonamide], for which the DC50 was 10 to 50 nM in assay [1] (setting [5]), over 500 nM in assay [2] (setting [7]), over 500 nM in assay [3] (setting [9]) and over 500 nM in assay [4] (setting [11]). Moreover, the Dmax in assay [1] (setting [6]) is over 70%; in assay [2] (setting [8]), under 30%; in assay [3] (setting [10]), under 30%; in assay [4] (setting [12]) it was under 30%.
Turning to `CCCS(=O)(=O)Nc1cccc(-c2cn(-c3ccc(N4CCN(CC5CCN(c6ccc([C@H]7CCC(=O)NC7=O)cc6)CC5)[C@H](C)C4)cc3)nc2-c2ccncc2)c1F` [Compound 378, N-[3-(1-{4-[(3R)-4-[(1-{4-[(3R)-2,6-dioxopiperidin-3-yl]phenyl}piperidin-4-yl)methyl]-3-methylpiperazin-1-yl]phenyl}-3-(pyridin-4-yl)-1H-pyrazol-4-yl)-2-fluorophenyl]propane-1-sulfonamide], the DC50 in assay [1] (setting [13]) was 10 to 50 nM; in assay [2] (setting [15]), 10 to 50 nM; in assay [3] (setting [17]) it was over 500 nM; in assay [4] (setting [19]), over 500 nM. For the same compound, the Dmax in assay [1] (setting [14]) was over 70%; in assay [2] (setting [16]), 30 to 70%; in assay [3] (setting [18]), 30 to 70%; in assay [4] (setting [20]), 30 to 70%.
In the case of `CCCS(=O)(=O)Nc1cccc(-c2nc(C3(C)CCN(C(=O)CN4CCC5(CC4)CN(c4ccc6c(c4)C(=O)N(C4CCC(=O)NC4=O)C6=O)C5)CC3)sc2-c2ccnc(N)n2)c1F` (racemic) [Compound 238, Rac-N-{3-[5-(2-aminopyrimidin-4-yl)-2-{1-[2-(2-{2-[(3R)-2,6-dioxopiperidin-3-yl]-1,3-dioxo-2,3-dihydro-1H-isoindol-5-yl}-2,7-diazaspiro[3.5]nonan-7-yl)acetyl]-4-methylpiperidin-4-yl}-1,3-thiazol-4-yl]-2-fluorophenyl}propane-1-sulfonamide], the DC50 in assay [1] (setting [5]) was under 10 nM; in assay [2] (setting [7]), 10 to 50 nM; in assay [3] (setting [9]), over 500 nM; in assay [4] (setting [11]), under 10 nM. The Dmax was over 70% in assay [1] (setting [6]), 30 to 70% in assay [2] (setting [8]), 30 to 70% in assay [3] (setting [10]) and 30 to 70% in assay [4] (setting [12]).
On to `O=C1CCN(c2ccc(N3CCC(CN4CCN(c5ccc(-n6cc(-c7cc(Cl)cc(NS(=O)(=O)N8CC[C@@H](F)C8)c7F)c(-c7ccncc7)n6)c(F)c5)CC4)CC3)nc2)C(=O)N1` [Compound 371, (3R)—N-[5-chloro-3-(1-{4-[4-({1-[5-(2,4-dioxo-1,3-diazinan-1-yl)pyridin-2-yl]piperidin-4-yl}methyl)piperazin-1-yl]-2-fluorophenyl}-3-(pyridin-4-yl)-1H-pyrazol-4-yl)-2-fluorophenyl]-3-fluoropyrrolidine-1-sulfonamide], for which the DC50 in assay [1] (setting [13]), in assay [2] (setting [15]), in assay [3] (setting [17]) and in assay [4] (setting [19]) was under 10 nM in each case. The Dmax in assay [1] (setting [14]) is over 70%; in assay [2] (setting [16]), 30 to 70%; in assay [3] (setting [18]), 30 to 70%; in assay [4] (setting [20]), 30 to 70%.
Take `O=C1CC[C@H](c2ccc(N3CCC(CN4CCN(c5ccc(-n6cc(-c7cc(Cl)cc(NS(=O)(=O)C8CCCC8)c7F)c(-c7ccncc7)n6)cc5)CC4)CC3)cc2)C(=O)N1` [Compound 374, N-{5-chloro-3-[1-(4-{4-[(1-{4-[(3R)-2,6-dioxopiperidin-3-yl]phenyl}piperidin-4-yl)methyl]piperazin-1-yl}phenyl)-3-(pyridin-4-yl)-1H-pyrazol-4-yl]-2-fluorophenyl}cyclopentanesulfonamide]: the DC50 was under 10 nM in assay [1] (setting [13]), 10 to 50 nM in assay [2] (setting [15]), 10 to 50 nM in assay [3] (setting [17]) and 10 to 50 nM in assay [4] (setting [19]). The Dmax in assay [1] (setting [14]) was over 70%; in assay [2] (setting [16]), over 70%; in assay [3] (setting [18]), 30 to 70%; in assay [4] (setting [20]) it was 30 to 70%.
`CCCS(=O)(=O)Nc1cccc(-c2nc(-c3ccc(C4CCN(CC5CCN(c6ccc(C7CCC(=O)NC7=O)cn6)CC5)CC4)cc3)sc2-c2ccnc(N)n2)c1F` (racemic) [Compound 208, Rac-N-{3-[5-(2-aminopyrimidin-4-yl)-2-(4-{1-[(1-{5-[(3R)-2,6-dioxopiperidin-3-yl]pyridin-2-yl}piperidin-4-yl)methyl]piperidin-4-yl}phenyl)-1,3-thiazol-4-yl]-2-fluorophenyl}propane-1-sulfonamide]: the DC50 was 10 to 50 nM in assay [1] (setting [5]), over 500 nM in assay [2] (setting [7]), over 500 nM in assay [3] (setting [9]) and over 500 nM in assay [4] (setting [11]). Also, the maximal degradation (Dmax) was over 70% in assay [1] (setting [6]), 30 to 70% in assay [2] (setting [8]), 30 to 70% in assay [3] (setting [10]) and 30 to 70% in assay [4] (setting [12]).
